ChEMBL document CHEMBL1765077, “Nonterpenoid C15 acetogenins from Laurencia marilzae” (2011)

Legend:
Type in all cases: functional
WiDr = assay: Antiproliferative activity against human WiDr cells after 48 hrs
A2780 = assay: Antiproliferative activity against human A2780 cells after 48 hrs; details: A2780, 48 h
SW1573 = assay: Antiproliferative activity against human SW1573 cells after 48 hrs; details: SW1573, 48 h
HBL-100 = assay: Antiproliferative activity against human HBL100 cells after 48 hrs; details: HBL-100, 48 h
HeLa = assay: Antiproliferative activity against human HeLa cells after 48 hrs
T47D = assay: Antiproliferative activity against human T47D cells after 48 hrs

Measured: GI50

C[C@H]1/C=C/C[C@H](Br)[C@@H]2C[C@@H](Cl)[C@@H](C[C@H](C=C=CBr)O1)O2 [OBTUSALLENE IV]
> 10 µg/mL: all assays above

C#C/C=C\CC(O)C(Cl)C/C=C\CC(Cl)C(Br)CC (mixture of isomers)
> 10 µg/mL: all assays above

COC(=O)/C=C\[C@H]1C[C@H]2O[C@@H](C[C@H]2Cl)[C@@H](Br)C[C@H]2O[C@@H]2[C@H](C)O1
> 10 µg/mL: all assays above

C/C=C/[C@H]1C/C=C\C[C@@H](Cl)[C@@H](C[C@H](C=C=CBr)OC(C)=O)O1
> 10 µg/mL: all assays above

C/C=C/[C@H]1C/C=C\C[C@@H](Cl)[C@@H](C[C@@H](O)C=C=CBr)O1 [MARILZALLENE]
> 10 µg/mL: all assays above

C[C@@H]1O[C@@H](C=C=CBr)C[C@H]2O[C@@H](C[C@H]2Cl)[C@@H](Br)C[C@H]2O[C@H]12
> 10 µg/mL: all assays above
